Assay results taken from paper PMC4054954 (Brain research, 2011).
“Also recorded” adds a separate entry of the source.

Tested on: HT-22 cells
Experiment: HT-22 cell-based glutamate cytoprotection assay
Design: species or system murine
Details: for cytoprotection / neuroprotection of HT-22 cells (in words): glutamate-induced oxidative stress cell death

SMILES	cytoprotection / neuroprotection of HT-22 cells (in words)	EC50 (Mus musculus, HT-22, read-out: cytoprotective EC50) [µM]
O=C(CCCN1CCC(O)(c2ccc(Cl)cc2)CC1)c1ccc(F)cc1 [haloperidol]	potent neuroprotective agent; also recorded: protective	
CC(C)=CCN1CC[C@]2(C)c3cc(O)ccc3C[C@H]1[C@H]2C [(+)-pentazocine]	not to be neuroprotective; also recorded: not cytoprotective	> 4
O=C(OCCN1CCOCC1)C1(c2ccccc2)CCCCC1 [PRE-084]	not cytoprotective	
